Laboratory results taken from patent US6822146B2, “Sulfonylurea-tolerant sunflower line M7” (priority 2000, dated 2004).

How the values were obtained:
[1] = test system: BC4-M5M12 × PHA155 hybrid; test: Test E injury to sunflower hybrid; assay type: in vivo; conditions: in vivo
Procedure: (§1) Based on the results from Test D, a modified protocol was developed to include three timings of post-emergence treatment. The hybrid BC4-M5M12 (female parent)×PHA155 restorer line (male parent) described in Test C was used in this test. Various herbicide programs were tested using three replications. […] Seed coatings of these formulated herbicides were applied to 6 kg of seeds in such amount that considering the distribution of the coated seeds in each pot, the herbicide active ingredient (a.i.) application rates per hectare were as indicated.
(§2) The treatments were applied similar to the methods described for Test D. Pre-emergence applications were broadcast only, not soil incorporated. For pre-emergence application, the pots were sprayed using the high rates of the herbicides two days after sowing the sunflower seeds. Post-emergence treatments were applied at the 4-6 leaf stage of sunflower (corresponding to early stage of Orobanche attachment; identified as “T1”), the 6-8 leaf stage of sunflower (corresponding to the mid stage of Orobanche attachment; nodules <5 mm diameter; identified as “T2”) and 8-12 leaf stage of sunflower (corresponding to late stage of Orobanche attachment; identified as “T3”). The mid-stage applications included the high as well as low application rates of each herbicide.
(§3) For comparison were also included in this test other acetolactate synthase-inhibiting herbicides reported in the literature as giving good weed control of Orobanche (L. García-Torres et al., Weed Research 1994, 34, 395-402; L. García-Torres et al., Weed Technology 1995, 9, 819-824; J. Hershenhorn et al., Weed Technology 1998, 12, 108-114).

BC4-M5M7 = test: Test B greenhouse phytotoxicity, BC4-M5M7; assay type: in vivo, sunflower; conditions: in vivo
Procedure: (§4) A greenhouse experiment was conducted to evaluate the spectrum of tolerance of three homozygous resistant mutants to various herbicides inhibiting acetolactate synthase (ALS) as their mode of action. The inbred lines tested were the 5th generation self-pollinated maintainers, M5M7, M5M11 and M5M12, as well as the 4th generation male sterile back-crosses BC4-M5M7, BC4-M5M11 and BC4-M5M12. Treatments of formulated herbicides were applied post-emergence at the 4-leaf stage. Application rates of the test herbicides were chosen to coincide with the rates commonly used in the crops for which they are registered. The application rate of imazethapyr was chosen to match the rate recommended to control parasitic weeds in sunflowers by L. García-Torres et al., Weed Technology 1995, 9, 819-824. Wild type H89 inbred sunflower was not included in this test, because the many of the tested herbicides are known to be efficacious in controlling volunteer sunflower as a weed. Treatments were replicated twice. […] A rating of 0% phytotoxicity means no crop injury.

[2] = test system: homozygous progeny of the three mutant sources; assay type: in vivo, sunflower; conditions: Test B application rates, post-emergence
Procedure: as §4

Orobanche cumana = test: Test E control of Orobanche cumana in resistant sunflower hybrid; assay type: in vivo
Procedure: The effect of the various treatments was evaluated 35 days after sowing. The sunflower roots were cleaned by washing in water, and the presence of Orobanche nodules was determined visually and by weighing root wet mass in comparison to check plants free of Orobanche infestation. […] The nodules caused by Orobanche increased root weight, and a correlation (r=0.7) was found between visual scores and weight measurements. Thus the weighing technique could be used to corroborate visual efficacy scorings. Orobanche emergence was also scored but found to be less useful to evaluate treatment efficiency at the evaluation timing of this test.
as §1, §2, §3

M5M11 = test: Test B greenhouse phytotoxicity, M5M11; assay type: in vivo, sunflower; conditions: in vivo
Procedure: as §4

M5M7 = test: Test B greenhouse phytotoxicity, M5M7; assay type: in vivo, sunflower; conditions: in vivo
Procedure: as §4

BC4-M5M11 = test: Test B greenhouse phytotoxicity, BC4-M5M11; assay type: in vivo, sunflower; conditions: in vivo
Procedure: as §4

O. cernua = conditions: preemergence application of a low dose (2 to 6 g/ha), with sunflower tolerance; cited from earlier work
BC4-M5M12 = test: Test B greenhouse phytotoxicity, BC4-M5M12; assay type: in vivo, sunflower; conditions: in vivo
Procedure: as §4

M5M12 = test: Test B greenhouse phytotoxicity, M5M12; assay type: in vivo, sunflower; conditions: in vivo
Procedure: as §4

'HA89B' seed = test: Determination of optimum mutagen concentration; assay type: in vivo, sunflower; conditions: EMS 20 to 40 mM
Procedure: Batches each consisting of 6000 seeds of ‘HA89B’ were incubated in 0.1 M potassium phosphate buffer (pH 5.6), supplemented with concentrations of EMS between 0 and 80 mM for 18 hours at room temperature, causing the seeds to swell. The seeds were rinsed in sodium thiosulfate for 1 minute to decompose the EMS, then in 5 consecutive water washes to eliminate EMS traces. The overall rinsing procedure lasted 5 hours. Seeds were dried for 2 hours at 25° C. using an airflow drier and then divided into sub-batches of 200 seeds each. To determine the effect of EMS on germination and plant branching, sub-batches were sown in flats right after drying and following 2, 4 and 6 days of storage at 4° C. after drying. Plant branching was used as a visual measure of mutation frequencies. Sub-batches from each EMS concentration were also sown in pots right after drying and grown to maturity to determine effect of EMS treatments on seed setting.

SMILES | Injury [1] | Maximum Phytotoxicity (BC4-M5M7) | tolerance of the mutants [2] | relative efficacy in controlling Orobanche (Orobanche cumana; Test E rates, metsulfuron-methyl compared with tribenuron-methyl) | Control (Orobanche cumana; pre-emergence 2 g a.i./ha) | Control (Orobanche cumana; pre-emergence 10 g a.i./ha) | Maximum Phytotoxicity (M5M11) | Maximum Phytotoxicity (M5M7) | Maximum Phytotoxicity (BC4-M5M11) | control of O. cernua (O. cernua) | Maximum Phytotoxicity (BC4-M5M12) | Maximum Phytotoxicity (M5M12) | plants producing viable seed ('HA89B' seed) | plant branching (visual measure of mutation frequencies) ('HA89B' seed; about 12% of plants from untreated seeds branched)
COc1nc(C)nc(NC(=O)NS(=O)(=O)c2ccccc2Cl)n1 [Chlorsulfuron, chlorsulfuron] | 0% | 45% | somewhat sensitive | less efficacious in controlling Orobanche | 13% | 58% | 50% | 47.5% | 50% | 75-85% | 45% | 45% | – | –
CCOS(C)(=O)=O [EMS, ethyl methanesulfonate] | – | – | – | – | – | – | – | – | – | – | – | – | more than half of the plants produced viable seed | more than half of the plants were branched
